Results as given in ChEMBL document CHEMBL1909046, “DrugMatrix in vitro pharmacology data”.

What was measured:
[1] = target: Sodium-dependent noradrenaline transporter (Homo sapiens, UniProt P23975); experiment: DRUGMATRIX: Norepinephrine Transporter radioligand binding (ligand: [125I] RTI-55); format: cell membranes, MDCK, Membrane; conditions: Not Active = under 50% inhibition at 10 µM; for Ki: read-out: Ki
Cytochrome P450 1A2 = target: T1, Cytochrome P450 1A2 (Homo sapiens, UniProt P05177); conditions: bti-tn-5b1-4; also: in other assays of this panel Not Active means under 50% inhibition at 10 µM
T1 sequence (P05177 whole entry): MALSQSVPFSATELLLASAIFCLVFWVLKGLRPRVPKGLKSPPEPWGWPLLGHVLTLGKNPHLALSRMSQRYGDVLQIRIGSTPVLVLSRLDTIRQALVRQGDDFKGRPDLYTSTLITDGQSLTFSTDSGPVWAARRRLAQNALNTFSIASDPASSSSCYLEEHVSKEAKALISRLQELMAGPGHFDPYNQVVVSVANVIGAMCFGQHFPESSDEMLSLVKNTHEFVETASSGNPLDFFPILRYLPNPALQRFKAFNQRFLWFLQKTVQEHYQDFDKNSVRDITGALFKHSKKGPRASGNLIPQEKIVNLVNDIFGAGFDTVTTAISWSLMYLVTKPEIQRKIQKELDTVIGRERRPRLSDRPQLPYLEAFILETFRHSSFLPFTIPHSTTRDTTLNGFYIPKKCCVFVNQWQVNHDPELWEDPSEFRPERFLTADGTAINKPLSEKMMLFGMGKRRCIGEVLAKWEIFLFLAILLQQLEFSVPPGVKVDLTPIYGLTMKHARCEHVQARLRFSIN

Cytochrome P450 2C19 = Cytochrome P450 2C19 (Homo sapiens, UniProt P33261); conditions: bti-tn-5b1-4; also: in other assays of this panel Not Active means under 50% inhibition at 10 µM
Chain of Cytochrome P450 2C19 (P33261 whole entry): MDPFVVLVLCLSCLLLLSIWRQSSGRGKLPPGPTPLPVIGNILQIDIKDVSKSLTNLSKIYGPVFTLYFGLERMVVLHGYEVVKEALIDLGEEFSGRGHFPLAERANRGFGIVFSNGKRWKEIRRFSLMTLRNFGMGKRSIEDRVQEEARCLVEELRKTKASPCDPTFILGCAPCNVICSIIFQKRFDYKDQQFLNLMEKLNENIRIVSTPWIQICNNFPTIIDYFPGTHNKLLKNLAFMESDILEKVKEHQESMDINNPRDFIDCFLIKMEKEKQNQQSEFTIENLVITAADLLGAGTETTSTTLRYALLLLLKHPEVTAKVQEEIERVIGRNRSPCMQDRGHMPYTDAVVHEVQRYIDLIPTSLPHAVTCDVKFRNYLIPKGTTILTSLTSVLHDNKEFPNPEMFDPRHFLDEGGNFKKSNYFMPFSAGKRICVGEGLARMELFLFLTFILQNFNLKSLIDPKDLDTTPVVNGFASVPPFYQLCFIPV

Cytochrome P450 2C9 = Cytochrome P450 2C9 (Homo sapiens, UniProt P11712); conditions: bti-tn-5b1-4; also: in other assays of this panel Not Active means under 50% inhibition at 10 µM
Chain of Cytochrome P450 2C9 (P11712 whole entry): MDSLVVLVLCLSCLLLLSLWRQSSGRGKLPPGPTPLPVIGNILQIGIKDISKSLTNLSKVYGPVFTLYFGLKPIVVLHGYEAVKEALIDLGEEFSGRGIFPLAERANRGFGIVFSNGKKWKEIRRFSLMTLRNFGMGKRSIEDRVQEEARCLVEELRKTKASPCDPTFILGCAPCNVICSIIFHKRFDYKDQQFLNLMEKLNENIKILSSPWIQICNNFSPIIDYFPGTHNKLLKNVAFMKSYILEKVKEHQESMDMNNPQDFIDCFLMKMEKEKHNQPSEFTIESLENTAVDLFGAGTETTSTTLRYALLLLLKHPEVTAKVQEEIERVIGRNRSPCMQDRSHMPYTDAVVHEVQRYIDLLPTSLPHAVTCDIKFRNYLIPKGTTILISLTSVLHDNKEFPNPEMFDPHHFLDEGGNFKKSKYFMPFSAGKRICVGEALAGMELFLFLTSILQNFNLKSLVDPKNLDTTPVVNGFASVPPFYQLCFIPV

Cytochrome P450 2D6 = Cytochrome P450 2D6 (Homo sapiens, UniProt P10635); conditions: bti-tn-5b1-4; also: in other assays of this panel Not Active means under 50% inhibition at 10 µM
Chain of Cytochrome P450 2D6 (P10635 whole entry): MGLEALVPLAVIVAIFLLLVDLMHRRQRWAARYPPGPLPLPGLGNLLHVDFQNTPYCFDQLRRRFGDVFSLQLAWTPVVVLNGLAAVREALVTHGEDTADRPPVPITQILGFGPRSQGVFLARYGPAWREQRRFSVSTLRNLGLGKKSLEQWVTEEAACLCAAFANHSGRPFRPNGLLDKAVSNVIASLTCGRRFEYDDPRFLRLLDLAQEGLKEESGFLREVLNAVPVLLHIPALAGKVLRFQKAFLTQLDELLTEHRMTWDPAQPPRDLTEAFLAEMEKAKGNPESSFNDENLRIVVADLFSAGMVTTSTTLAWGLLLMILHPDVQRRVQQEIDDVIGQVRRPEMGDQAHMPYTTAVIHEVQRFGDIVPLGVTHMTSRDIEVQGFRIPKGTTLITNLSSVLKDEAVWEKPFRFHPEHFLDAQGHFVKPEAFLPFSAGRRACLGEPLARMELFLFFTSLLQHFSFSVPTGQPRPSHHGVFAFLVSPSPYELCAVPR

Cytochrome P450 3A4 = Cytochrome P450 3A4 (Homo sapiens, UniProt P08684); conditions: bti-tn-5b1-4; also: in other assays of this panel Not Active means under 50% inhibition at 10 µM
Chain of Cytochrome P450 3A4 (P08684 whole entry): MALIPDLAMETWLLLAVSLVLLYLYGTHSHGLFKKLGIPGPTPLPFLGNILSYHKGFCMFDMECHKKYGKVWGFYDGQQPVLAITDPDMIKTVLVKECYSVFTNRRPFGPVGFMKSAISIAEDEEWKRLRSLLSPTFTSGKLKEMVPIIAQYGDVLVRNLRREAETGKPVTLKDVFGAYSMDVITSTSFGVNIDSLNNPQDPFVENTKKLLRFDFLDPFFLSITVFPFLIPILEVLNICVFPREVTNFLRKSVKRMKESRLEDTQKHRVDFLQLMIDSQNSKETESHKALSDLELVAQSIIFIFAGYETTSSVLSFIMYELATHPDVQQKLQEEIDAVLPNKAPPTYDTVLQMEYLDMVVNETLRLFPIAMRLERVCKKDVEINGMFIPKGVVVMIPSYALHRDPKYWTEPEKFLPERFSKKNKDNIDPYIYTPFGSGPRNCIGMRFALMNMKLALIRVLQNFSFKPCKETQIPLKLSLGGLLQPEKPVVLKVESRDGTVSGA

Estrogen receptor = target: T2, Estrogen receptor (Homo sapiens, UniProt P03372); conditions: sf9; also: in other assays of this panel Not Active means under 50% inhibition at 10 µM
T2 sequence (P03372 whole entry): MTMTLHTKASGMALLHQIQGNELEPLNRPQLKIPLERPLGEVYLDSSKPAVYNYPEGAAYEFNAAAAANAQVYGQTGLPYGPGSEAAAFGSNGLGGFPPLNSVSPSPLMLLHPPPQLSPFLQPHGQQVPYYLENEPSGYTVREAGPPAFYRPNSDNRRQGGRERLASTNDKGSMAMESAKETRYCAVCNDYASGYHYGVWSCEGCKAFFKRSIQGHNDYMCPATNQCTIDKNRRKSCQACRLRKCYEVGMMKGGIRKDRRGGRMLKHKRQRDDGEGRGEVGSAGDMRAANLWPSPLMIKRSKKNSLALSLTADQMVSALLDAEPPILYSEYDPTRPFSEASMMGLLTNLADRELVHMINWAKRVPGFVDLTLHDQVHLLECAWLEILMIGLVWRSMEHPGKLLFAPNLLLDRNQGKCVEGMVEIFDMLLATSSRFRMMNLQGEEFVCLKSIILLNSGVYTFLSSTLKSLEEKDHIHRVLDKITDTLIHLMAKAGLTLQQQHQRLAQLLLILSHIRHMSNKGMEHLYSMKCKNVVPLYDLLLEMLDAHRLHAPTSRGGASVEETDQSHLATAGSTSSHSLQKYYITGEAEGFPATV

Glucocorticoid receptor = target: T3, Glucocorticoid receptor (Homo sapiens, UniProt P04150); conditions: hela s3; also: in other assays of this panel Not Active means under 50% inhibition at 10 µM
T3 sequence (P04150 whole entry): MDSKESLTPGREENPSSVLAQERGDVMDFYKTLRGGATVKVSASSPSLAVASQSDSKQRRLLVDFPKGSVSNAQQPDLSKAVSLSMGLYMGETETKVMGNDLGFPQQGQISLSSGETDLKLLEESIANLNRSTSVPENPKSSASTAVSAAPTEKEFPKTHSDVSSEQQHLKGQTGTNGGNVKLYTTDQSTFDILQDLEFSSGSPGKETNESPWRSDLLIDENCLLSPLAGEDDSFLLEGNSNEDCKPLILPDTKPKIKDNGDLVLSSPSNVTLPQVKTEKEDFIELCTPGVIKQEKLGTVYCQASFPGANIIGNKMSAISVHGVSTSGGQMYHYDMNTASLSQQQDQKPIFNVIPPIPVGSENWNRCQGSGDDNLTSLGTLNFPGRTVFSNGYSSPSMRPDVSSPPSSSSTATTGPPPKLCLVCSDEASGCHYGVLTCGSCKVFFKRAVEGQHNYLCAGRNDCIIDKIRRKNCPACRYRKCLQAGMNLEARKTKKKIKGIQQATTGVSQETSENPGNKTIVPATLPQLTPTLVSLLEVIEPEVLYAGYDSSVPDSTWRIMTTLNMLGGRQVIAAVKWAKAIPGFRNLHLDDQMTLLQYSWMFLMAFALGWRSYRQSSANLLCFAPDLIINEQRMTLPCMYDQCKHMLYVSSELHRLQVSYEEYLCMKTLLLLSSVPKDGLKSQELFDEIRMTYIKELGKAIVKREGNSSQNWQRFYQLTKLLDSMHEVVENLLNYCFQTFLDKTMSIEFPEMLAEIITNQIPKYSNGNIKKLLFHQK

[2] = target: Voltage-gated inwardly rectifying potassium channel KCNH2 (Homo sapiens, UniProt Q12809); conditions: hek293; also: in other assays of this panel Not Active means under 50% inhibition at 10 µM
Chain of Voltage-gated inwardly rectifying potassium channel KCNH2 (Q12809 whole entry): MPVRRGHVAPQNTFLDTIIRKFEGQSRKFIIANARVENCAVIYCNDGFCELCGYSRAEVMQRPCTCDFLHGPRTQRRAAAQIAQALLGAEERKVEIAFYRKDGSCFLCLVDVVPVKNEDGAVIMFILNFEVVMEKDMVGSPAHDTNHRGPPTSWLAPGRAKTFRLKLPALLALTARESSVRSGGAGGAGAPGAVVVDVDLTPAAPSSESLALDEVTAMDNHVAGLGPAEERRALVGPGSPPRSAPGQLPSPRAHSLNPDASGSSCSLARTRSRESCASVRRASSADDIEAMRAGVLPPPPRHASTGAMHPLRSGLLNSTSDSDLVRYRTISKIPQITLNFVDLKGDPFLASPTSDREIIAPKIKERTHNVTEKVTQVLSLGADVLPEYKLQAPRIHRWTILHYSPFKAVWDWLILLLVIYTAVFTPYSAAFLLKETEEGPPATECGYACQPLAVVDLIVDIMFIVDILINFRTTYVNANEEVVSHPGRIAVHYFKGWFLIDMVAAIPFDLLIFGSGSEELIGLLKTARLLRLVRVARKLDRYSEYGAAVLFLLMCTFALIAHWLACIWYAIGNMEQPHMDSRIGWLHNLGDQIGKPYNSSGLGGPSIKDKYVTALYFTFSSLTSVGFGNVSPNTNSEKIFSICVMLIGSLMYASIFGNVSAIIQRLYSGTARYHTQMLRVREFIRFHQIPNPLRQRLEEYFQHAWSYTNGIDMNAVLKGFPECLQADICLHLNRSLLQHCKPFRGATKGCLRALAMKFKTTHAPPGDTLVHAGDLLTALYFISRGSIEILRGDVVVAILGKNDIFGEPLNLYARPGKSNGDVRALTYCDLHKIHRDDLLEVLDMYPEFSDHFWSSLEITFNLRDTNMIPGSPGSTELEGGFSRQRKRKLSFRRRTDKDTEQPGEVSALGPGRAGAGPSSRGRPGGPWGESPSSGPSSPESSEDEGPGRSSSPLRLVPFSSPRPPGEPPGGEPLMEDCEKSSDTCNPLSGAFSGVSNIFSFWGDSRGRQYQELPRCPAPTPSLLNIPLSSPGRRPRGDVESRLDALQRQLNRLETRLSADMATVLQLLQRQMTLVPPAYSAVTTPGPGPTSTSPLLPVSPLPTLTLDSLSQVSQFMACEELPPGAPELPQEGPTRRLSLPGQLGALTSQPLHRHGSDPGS

Estrogen receptor beta = Estrogen receptor beta (Homo sapiens, UniProt Q92731); conditions: sf9; also: in other assays of this panel Not Active means under 50% inhibition at 10 µM
Chain of Estrogen receptor beta (Q92731 whole entry): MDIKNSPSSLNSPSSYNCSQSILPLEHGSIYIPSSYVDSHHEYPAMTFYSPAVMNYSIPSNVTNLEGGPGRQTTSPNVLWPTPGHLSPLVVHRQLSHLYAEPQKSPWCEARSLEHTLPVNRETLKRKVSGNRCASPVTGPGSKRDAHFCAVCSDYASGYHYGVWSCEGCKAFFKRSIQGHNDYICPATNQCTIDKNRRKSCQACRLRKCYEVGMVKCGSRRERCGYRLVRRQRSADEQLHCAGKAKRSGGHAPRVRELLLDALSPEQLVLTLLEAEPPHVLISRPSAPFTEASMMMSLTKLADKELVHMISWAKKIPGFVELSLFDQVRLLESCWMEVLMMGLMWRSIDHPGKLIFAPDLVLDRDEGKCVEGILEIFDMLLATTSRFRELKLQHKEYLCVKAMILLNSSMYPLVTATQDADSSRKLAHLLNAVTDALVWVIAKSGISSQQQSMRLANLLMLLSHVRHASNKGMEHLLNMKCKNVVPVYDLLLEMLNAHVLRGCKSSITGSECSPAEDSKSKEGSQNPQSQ

Chain of Sodium-dependent noradrenaline transporter (P23975 whole entry): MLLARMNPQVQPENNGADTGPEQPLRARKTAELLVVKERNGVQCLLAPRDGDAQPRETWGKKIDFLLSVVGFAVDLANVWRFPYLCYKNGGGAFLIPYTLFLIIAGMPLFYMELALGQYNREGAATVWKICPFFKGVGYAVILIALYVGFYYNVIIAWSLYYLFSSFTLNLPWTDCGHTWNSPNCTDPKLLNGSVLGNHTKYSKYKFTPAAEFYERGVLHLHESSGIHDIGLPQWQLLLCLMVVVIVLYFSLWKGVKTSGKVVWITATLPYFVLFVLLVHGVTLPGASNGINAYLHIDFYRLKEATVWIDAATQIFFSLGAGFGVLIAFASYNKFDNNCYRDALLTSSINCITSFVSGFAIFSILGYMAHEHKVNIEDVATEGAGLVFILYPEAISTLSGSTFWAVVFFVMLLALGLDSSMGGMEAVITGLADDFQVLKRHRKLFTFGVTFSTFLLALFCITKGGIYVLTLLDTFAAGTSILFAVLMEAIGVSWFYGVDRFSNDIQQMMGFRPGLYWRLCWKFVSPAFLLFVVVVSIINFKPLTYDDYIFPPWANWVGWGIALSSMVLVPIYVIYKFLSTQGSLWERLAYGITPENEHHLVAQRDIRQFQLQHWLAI

SMILES | IC50 ([1]; mdck) | IC50 (Cytochrome P450 1A2) | Ki (Cytochrome P450 1A2) | IC50 (Cytochrome P450 2C19) | Ki (Cytochrome P450 2C19) | IC50 (Cytochrome P450 2C9) | Ki (Cytochrome P450 2C9) | IC50 (Cytochrome P450 2D6) | Ki (Cytochrome P450 2D6) | IC50 (Cytochrome P450 3A4) | Ki (Cytochrome P450 3A4) | IC50 (Estrogen receptor) | IC50 (Glucocorticoid receptor) | IC50 [2] | Ki [2] | IC50 (Estrogen receptor beta) | IC50 ([1]; read-out: IC50) | Ki [1]
C[C@](N)(Cc1ccc(O)cc1)C(=O)O [METYROSINE] | Not Active | Not Active | Not Active | Not Active | Not Active | Not Active | Not Active | Not Active | Not Active | Not Active | Not Active | Not Active | Not Active | Not Active | Not Active |  |  | 
CC(=O)[C@H]1CC[C@H]2[C@@H]3CCC4=CC(=O)CC[C@]4(C)[C@H]3CC[C@]12C [PROGESTERONE] | Not Active | Not Active | Not Active | Not Active | Not Active | Not Active | Not Active | Not Active | Not Active | Not Active | Not Active | Not Active |  |  |  | Not Active |  | 
CSc1ccc2c(c1)N(CCC1CCCCN1C)c1ccccc1S2 (configuration not stated) [THIORIDAZINE] |  |  |  |  |  | Not Active | Not Active |  |  | Not Active | Not Active | Not Active | Not Active |  |  |  |  | 
COS(C)(=O)=O [METHANESULFONIC ACID METHYL ESTER] | Not Active | Not Active | Not Active | Not Active | Not Active | Not Active | Not Active | Not Active | Not Active | Not Active | Not Active | Not Active | Not Active | Not Active | Not Active |  |  | 
CC[C@H]1OC(=O)[C@H](C)[C@@H](O[C@H]2C[C@@](C)(OC)[C@@H](O)[C@H](C)O2)[C@H](C)[C@@H](O[C@@H]2O[C@H](C)C[C@H](N(C)C)[C@H]2O)[C@](C)(O)C[C@@H](C)/C(=N\OCOCCOC)[C@H](C)[C@@H](O)[C@]1(C)O [ROXITHROMYCIN] | Not Active | Not Active | Not Active | Not Active | Not Active | Not Active | Not Active | Not Active | Not Active | Not Active | Not Active | Not Active | Not Active | Not Active | Not Active |  |  | 
CC1=C(/C=C/C(C)=C/C=C/C(C)=C\C(=O)O)C(C)(C)CCC1 [ISOTRETINOIN] | Not Active | Not Active | Not Active | Not Active | Not Active | Not Active | Not Active | Not Active | Not Active | Not Active | Not Active | Not Active | Not Active |  |  |  |  | 
NC(CO)(CO)CO [TROMETHAMINE] | Not Active | Not Active | Not Active | Not Active | Not Active | Not Active | Not Active | Not Active | Not Active | Not Active | Not Active | Not Active | Not Active | Not Active | Not Active |  |  | 
Cc1ccc(C(=O)C(C)CN2CCCCC2)cc1 (configuration not stated) [TOLPERISONE] | Not Active | Not Active | Not Active | Not Active | Not Active | Not Active | Not Active | Not Active | Not Active | Not Active | Not Active | Not Active |  | Not Active | Not Active | Not Active |  | 
Clc1ccccc1C(c1ccccc1)(c1ccccc1)n1ccnc1 [CLOTRIMAZOLE] |  | Not Active | Not Active |  |  |  |  | Not Active | Not Active |  |  | Not Active |  | Not Active | Not Active | Not Active | 7.94 µM | 7.87 µM
CC(=O)S[C@@H]1CC2=CC(=O)CC[C@]2(C)[C@H]2CC[C@@]3(C)[C@@H](CC[C@@]34CCC(=O)O4)[C@H]12 [SPIRONOLACTONE] | Not Active |  |  |  |  |  |  |  |  | Not Active | Not Active | Not Active |  | Not Active | Not Active | Not Active |  | 
COC(=O)[C@@H]1[C@H]2C[C@H]3c4[nH]c5ccccc5c4CCN3C[C@@H]2CC[C@@H]1O [YOHIMBINE] | Not Active |  |  |  |  |  |  |  |  |  |  | Not Active |  | Not Active | Not Active | Not Active |  | 
COc1cccc(C2(O)CCCCC2CN(C)C)c1 (configuration not stated) [TRAMADOL] |  | Not Active | Not Active | Not Active | Not Active | Not Active | Not Active | Not Active | Not Active |  |  | Not Active | Not Active | Not Active | Not Active |  |  | 
Clc1ccc(C(c2ccccc2Cl)C(Cl)Cl)cc1 (configuration not stated) [MITOTANE] |  | Not Active | Not Active | Not Active | Not Active | Not Active | Not Active | Not Active | Not Active | Not Active | Not Active |  | Not Active | Not Active | Not Active | Not Active | 0.819 µM | 0.812 µM
